Measurements from ChEMBL document CHEMBL4229414, “Design and synthesis of bridged piperidine and piperazine isosteres” (Bioorg Med Chem Lett, 2018).

Experiments:
[1] = molecular target: D(2) dopamine receptor (Homo sapiens) (UniProt P14416); experiment: Antagonist activity at human D2L receptor expressed in CHOK1 cells assessed as inhibition of dopamine-induced calcium flux at 10 uM by fluorescence assay relative to control; format: functional, cell-based
[2] = molecular target: D(2) dopamine receptor (Homo sapiens) (UniProt P14416); experiment: Antagonist activity at human D2L receptor expressed in CHOK1 cells assessed as inhibition of dopamine-induced calcium flux at 0.1 uM by fluorescence assay relative to control; format: functional, cell-based
[3] = molecular target: D(2) dopamine receptor (Homo sapiens) (UniProt P14416); experiment: Agonist activity at human D2L receptor expressed in CHOK1 cells assessed as inhibition of receptor response at 10 uM by calcium flux assay relative to control; format: functional, cell-based
[4] = molecular target: D(2) dopamine receptor (Homo sapiens) (UniProt P14416); experiment: Agonist activity at human D2L receptor expressed in CHOK1 cells assessed as inhibition of receptor response at 0.1 uM by calcium flux assay relative to control; format: functional, cell-based
[5] = organism: Homo sapiens; experiment: Agonist activity at recombinant human D4.4 expressed in CHOK1 cells assessed as inhibition of receptor response at 10 uM by HTRF based cAMP assay relative to control; format: cell-based
[6] = organism: Homo sapiens; experiment: Agonist activity at recombinant human D4.4 expressed in CHOK1 cells assessed as inhibition of receptor response at 0.1 uM by HTRF based cAMP assay relative to control; format: cell-based
[7] = Passive permeability in human Caco2 cells; format: ADME, cell-based; settings: caco-2
[8] = molecular target: T1, Voltage-gated inwardly rectifying potassium channel KCNH2 (Homo sapiens, UniProt Q12809); experiment: (§1) Inhibition of human ERG at 3 uM relative to control; settings: 3 µM
T1 sequence (Q12809 whole entry): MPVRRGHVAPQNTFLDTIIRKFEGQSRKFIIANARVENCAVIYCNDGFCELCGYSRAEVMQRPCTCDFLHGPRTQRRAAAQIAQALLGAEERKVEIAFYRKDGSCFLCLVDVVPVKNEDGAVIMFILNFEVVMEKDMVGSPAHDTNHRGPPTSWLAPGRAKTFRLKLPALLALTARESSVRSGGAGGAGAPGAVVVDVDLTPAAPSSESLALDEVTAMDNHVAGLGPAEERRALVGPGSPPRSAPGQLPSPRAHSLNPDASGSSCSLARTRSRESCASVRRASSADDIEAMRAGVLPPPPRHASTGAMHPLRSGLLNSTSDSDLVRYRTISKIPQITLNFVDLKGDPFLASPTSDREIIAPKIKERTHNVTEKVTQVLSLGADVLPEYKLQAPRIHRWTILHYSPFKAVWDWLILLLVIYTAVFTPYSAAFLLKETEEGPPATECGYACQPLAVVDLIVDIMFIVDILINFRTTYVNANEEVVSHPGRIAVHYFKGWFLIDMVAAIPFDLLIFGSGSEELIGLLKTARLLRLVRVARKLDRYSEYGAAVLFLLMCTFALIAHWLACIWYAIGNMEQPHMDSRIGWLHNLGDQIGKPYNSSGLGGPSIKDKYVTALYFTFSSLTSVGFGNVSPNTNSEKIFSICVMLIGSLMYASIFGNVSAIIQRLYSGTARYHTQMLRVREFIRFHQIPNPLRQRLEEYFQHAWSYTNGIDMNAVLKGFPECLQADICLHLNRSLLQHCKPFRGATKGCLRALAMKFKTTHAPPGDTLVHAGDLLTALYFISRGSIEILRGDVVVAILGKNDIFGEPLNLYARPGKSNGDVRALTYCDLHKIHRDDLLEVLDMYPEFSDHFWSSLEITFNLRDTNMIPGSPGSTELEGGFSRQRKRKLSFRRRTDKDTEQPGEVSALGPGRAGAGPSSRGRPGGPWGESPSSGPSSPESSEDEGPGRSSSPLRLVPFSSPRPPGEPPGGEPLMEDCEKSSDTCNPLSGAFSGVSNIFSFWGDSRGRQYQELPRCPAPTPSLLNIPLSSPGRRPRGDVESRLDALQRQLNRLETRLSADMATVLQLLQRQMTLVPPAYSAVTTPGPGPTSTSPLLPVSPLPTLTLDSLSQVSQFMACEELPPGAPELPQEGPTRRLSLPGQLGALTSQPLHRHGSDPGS

[9] = Stability in mouse microsomes; format: ADME, Microsome; further: time not given here
[10] = molecular target: T1, Voltage-gated inwardly rectifying potassium channel KCNH2; experiment: (§2) Inhibition of human ERG at 1 uM relative to control; settings: 1 µM
[11] = Stability in human microsomes; format: ADME, Microsome; further: time not given here
[12] = Efflux ratio of permeability in human Caco2 cells; format: ADME, cell-based; settings: caco-2
[13] = molecular target: T1, Voltage-gated inwardly rectifying potassium channel KCNH2; experiment: (§3) Inhibition of human ERG at 10 uM relative to control; settings: 10 µM
[14] = Stability in rat microsomes; format: ADME, Microsome; further: time not given here
[15] = molecular target: T2, hERG (KCNH2) (Homo sapiens, UniProt Q12809); experiment: as §1
T2 sequence (Q12809 whole entry): as above

[16] = molecular target: T2, hERG (KCNH2); experiment: as §2
[17] = molecular target: T2, hERG (KCNH2); experiment: as §3

Sequence of D(2) dopamine receptor (Homo sapiens) (P14416 whole entry): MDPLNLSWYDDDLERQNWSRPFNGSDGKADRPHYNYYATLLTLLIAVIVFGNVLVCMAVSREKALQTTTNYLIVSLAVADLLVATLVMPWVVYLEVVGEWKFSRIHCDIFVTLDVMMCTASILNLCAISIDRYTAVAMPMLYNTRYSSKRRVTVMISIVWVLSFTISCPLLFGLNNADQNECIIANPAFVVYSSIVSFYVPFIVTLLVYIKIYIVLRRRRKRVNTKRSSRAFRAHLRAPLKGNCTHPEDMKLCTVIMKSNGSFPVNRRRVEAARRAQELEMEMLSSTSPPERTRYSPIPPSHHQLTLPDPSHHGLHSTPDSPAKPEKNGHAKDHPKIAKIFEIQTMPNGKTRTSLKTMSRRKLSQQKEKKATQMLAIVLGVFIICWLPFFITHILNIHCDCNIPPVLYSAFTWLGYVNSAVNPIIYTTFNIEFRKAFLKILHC

| SMILES | inhibition [1] [%] | inhibition [2] [%] | inhibition [3] [%] | inhibition [4] [%] | inhibition [5] [%] | inhibition [6] [%] | permeability [7] [%] | inhibition (INH) [8] [%] | Stability [9] [%] | inhibition (INH) [10] [%] | Stability [11] [%] | Ratio [12] | inhibition (INH) [13] [%] | Stability [14] [%] | inhibition at 3 µM [15] [%] | inhibition at 1 µM [16] [%] | efflux ratio [12] | inhibition at 10 µM [17] [%] |
| --- | --- | --- | --- | --- | --- | --- | --- | --- | --- | --- | --- | --- | --- | --- | --- | --- | --- | --- |
| CCCN1[C@H]2COC[C@H]1CC(c1ccccc1OC)C2 (relative stereo; 16) [listing 1 of 2 here] | 34 | 21 | 11 | 4 | 20 | 3 | – | – | – | – | – | – | – | – | – | – | – | – |
| CCCN1[C@H]2CC[C@H]1CC(c1ccccc1OC)C2 (relative stereo; 4) [listing 1 of 2 here] | – | – | – | – | – | – | 99.7 | 25 | 6 | 10 | 62 | 4.1 | 56.5 | – | – | – | – | – |
| CCCN1[C@H]2CC[C@H]1CC(c1ccccc1OC)C2 (relative stereo; 4) [listing 2 of 2 here] | 22 | 19 | 0 | 8 | 11 | 10 | – | – | – | – | – | – | – | – | – | – | – | – |
| CCCN1C[C@H]2OC[C@@H]1C[C@@]2(O)c1ccccc1OC | 4 | 4 | 16 | 25 | 15 | 4 | 100 | – | 18 | – | 66 | – | – | 53 | 4 | 3 | 3 | 6 |
| CCCN1C[C@H]2OC[C@@H]1C[C@@H]2c1ccccc1OC | – | – | 16 | 25 | – | – | 100 | – | 4 | – | 100 | – | – | 3 | 3 | 0 | 0.8 | 15 |
| CCCN1[C@H]2COC[C@H]1CC(c1ccccc1OC)C2 (relative stereo; 20) | 12 | 10 | 30 | 22 | – | 14 | – | – | – | – | – | – | – | – | – | – | – | – |
| CCCN1CCN(c2ccccc2OC)CC1 | -1 | – | 99 | 50 | 12 | 9 | 100 | – | 2 | – | 63 | – | – | 2 | 16 | 8 | 1.1 | 41 |
| CCCN1[C@H]2COC[C@H]1CC(c1ccccc1OC)C2 (relative stereo; 16) [listing 2 of 2 here] | – | – | – | – | – | – | – | 17 | 7 | 6 | 35 | 3.1 | 39 | – | – | – | – | – |
| CCCN1[C@H]2CC[C@H]1CC(c1cc(OC)c(OC)c(OC)c1)C2 (relative stereo) | 8 | 12 | 4 | 0 | -1 | – | 99 | – | 5 | – | 100 | – | – | 4 | 40 | 20 | 5.6 | 66 |
| CCCN1[C@H]2CC[C@H]1CC(c1cccc(OC)c1)C2 (relative stereo) | 13 | 12 | 32 | 9 | 16 | 4 | 100 | – | 3 | – | 4 | – | – | 2 | 54 | 30 | 2.6 | 81 |
